Source: patent US8895717B2, “Delivery of siRNA by neutral lipid compositions” (The Board of Regents of the University of Texas System, priority 2005, dated 2014)
d = 2'-deoxy (DNA); r = 2'-OH (RNA)

Experiments:
SKOV3ip1 cells = test: In vivo therapy with DOPC-FAK siRNA, SKOV3ip1 model; set-up: species or system nude mice; settings: for Incidence (%) / No. Nodules: siRNA in DOPC twice weekly, docetaxel 50 μg weekly
Description: siRNA for in vivo delivery was incorporated into the phospholipid 1,2-dioleoyl-sn-glycero-3-phosphatidylcholine (DOPC). DOPC and siRNA were mixed in the presence of excess tertiary-butanol at a ratio of […], as previously described (Landen et al., 2005). Tween-20 was added to the mixture at a ratio of 1:19. The mixture was vortexed, frozen in an acetone/dry ice bath, and lyophilized. Before in vivo administration, this preparation was hydrated with normal (0.9%) saline at a concentration of 15 μg/ml to achieve the desired dose of 150-200 μl per injection. To estimate the quantity of siRNA not taken up by liposomes free siRNA was separated from liposomes by using filter units with a 30,000 nominal molecular weight limit (Millipore Corp, Billerica, Mass.). The liposomal suspension was added to the filters and centrifuged at 5,000 g for 40 min at room temperature. Fractions were collected, the material trapped in the filter was reconstituted with 0.9% saline, and the amount of siRNA in the collected fraction and eluent were measured by spectrophotometry.
To produce tumors, SKOV3ip1, Hey A8-MDR cells (1×10^6 cells/0.2 ml of HBSS) and Hey A8 cells (2.5×10^5 cells/0.2 ml of HBSS) were injected interperitoneally (i.p.) into the mice. For in vivo injections, cells were trypsinized and centrifuged at 1000 rpm for 7 minutes at 4° C., washed twice with PBS and reconstituted in serum-free Hank's balanced salt solution (HBSS, Life Technologies, Carlsbad, Calif.). Only single-cell suspensions with >95% viability, as determined by trypan blue exclusion, were used for the in vivo injections. Mice (n=10 per group) were monitored for adverse effects of therapy and were sacrificed on day 35 (SKOV3ip1) or day 28 (HeyA8 or HeyA8-MDR) or when any of the mice began to appear moribund. Mouse weight, tumor weight, and tumor distribution were recorded. Tissue specimens were snap frozen for lysate preparation, fixed in formalin for paraffin embedding or frozen on OCT compound (Miles, Inc., Elkhart, Ind.) for frozen slide preparation.
Based on the results of preliminary dose-response studies, a series of three separate therapy studies were initiated using the optimal FAK siRNA dosage. Tumor cells were injected i.p. and 7 days later, the mice were randomly assigned to five treatment groups: empty liposome twice weekly, non-specific control […] siRNA (3 μg) twice weekly, control FAK siRNA (3 μg) twice weekly in combination with 50 μg docetaxel weekly, FAK siRNA twice weekly and FAK siRNA (3 μg) twice weekly in addition to 50 μg docetaxel weekly.
The SKOV3ip1 or HeyA8 ovarian cancer cells were implanted into the peritoneal cavity of athymic nude mice for experiments designed to test the therapeutic potential of FAK-targeted inhibition of gene expression. Seven days later, therapy was started according to the following five treatment groups: 1) empty liposomes; 2) non-specific siRNA-DOPC; 3) docetaxel plus non-specific siRNA-DOPC; 4) FAK targeted siRNA-DOPC; and 5) docetaxel plus FAK-targeted siRNA-DOPC. The animals were sacrificed after 4 weeks of therapy and a necropsy was performed. The data for these therapies' effects on SKOV3ip1 and HeyA8 are summarized in FIGS. 6A and 6B, respectively. […] Treatment with FAK siRNA alone or docetaxel plus control siRNA were effective in inhibiting tumor growth (54 to 74%) in both cell lines compared with control (FIG. 13).

HeyA8 orthotopic model = test: Angiogenesis (MVD), proliferation (PCNA), apoptosis (TUNEL), VEGF and MMP-9 in harvested tumors; type: in vivo, nude mice; settings: for endothelial cell apoptosis: CD31 and TUNEL dual localization
Description: Expression of PCNA was determined by IHC analysis using paraffin-embedded tumors. Sections (8-μm thick) were deparaffinized in xylene, treated with a graded series of alcohol [100%, 95%, 80% ethanol/double distilled H2O (v/v)], and rehydrated in PBS (pH 7.5). Antigen retrieval was performed by microwave heating for 5 minutes in 0.1 M citrate buffer pH 6.0, followed by blocking of endogenous […] with 3% H2O2 in methanol for 5 min. After PBS wash ×2, slides were blocked with 5% normal horse serum and 1% normal goat serum in PBS for 15 min at room temperature, followed by incubation with primary antibody (anti-PCNA, PC-10, mouse IgG, Dako), in blocking solution overnight at 4° C. After two PBS washes, the appropriate secondary antibody conjugated to horseradish peroxidase, in blocking solution, was added for 1 hour at room temperature. HRP was detected with DAB (Phoenix Biotechnologies, Huntsville, Ala.) substrate for 5 minutes, washed, and counterstained with Gil No. 3 hematoxylin (Sigma) for 20 sec. IHC for CD31 was performed on freshly cut frozen tissue. […] The primary antibody used was anti-CD31 (PECAM-1, rat IgG, Pharmingen). Staining for PCNA and CD31 was conducted on tumors collected at the conclusion of 4 week therapy trials.
To quantify MVD, 10 random 0.159-mm^2 fields at ×100 final magnification were examined for each tumor (1 slide per mouse, 5 slides per group), and the number of microvessels per field were counted. A single microvessel was defined as a discrete cluster or single cell stained positive for CD31 (CD31), and the presence of a lumen was required for scoring as a microvessel. To quantify PCNA expression, the number of positive cells (DAB staining) was counted in 10 random 0.159-mm^2 fields at ×100 magnification. To quantify TUNEL positive cells, the number of green fluorescence positive cells was counted in 10 random 0.01-mm^2 fields at ×400 magnification.
Expression of PCNA was determined by IHC analysis using paraffin-embedded tumors. Sections (8-μm thick) were mounted on positively charged Superfrost slides (Fisher Scientific Co., Houston, Tex.) and dried overnight. Sections were deparaffinized in xylene, treated with a graded series of alcohol [100%, 95%, 80% ethanol/double distilled H2O (v/v)], and rehydrated in PBS (pH 7.5). Antigen was retrieved by placing the slides in water and then boiling them in a microwave on high power for 5 min. Expression of CD31 was determined using fresh frozen tissues that were cut into 4-μm thick sections and mounted on positively charged slides. The slides were stored at −80° C.; sections were fixed in cold acetone for 10 min. and then washed twice with PBS for 3 min each time. A positive reaction was visualized by incubating the slides with stable 3,3 diaminobenzidine for 10-20 min. The sections were rinsed with distilled water, counterstained with Gill's hematoxylin for 1 min and mounted with Universal mount (Research Genetics).
To determine potential mechanisms underlying the efficacy of anti-FAK based therapy, its effects on several biological endpoints were examined, including angiogenesis (MVD), proliferation (PCNA), and apoptosis (TUNEL). Due to growing evidence related to FAK and tumor angiogenesis (Kornberg et al., 2004; Mitra et al., 2005). The inventors evaluated vessel density (FIG. 14B) in the tumors harvested from the studies described above. […]

Row | Substance | Incidence (%) (SKOV3ip1 cells) | No. Nodules (SKOV3ip1 cells) | endothelial cell apoptosis (HeyA8 orthotopic model) | mean MVD compared with empty liposomes (HeyA8 orthotopic model; CD31 staining) | VEGF and MMP-9 expression (HeyA8 orthotopic model; IHC) | PCNA expression compared to empty liposome or control siRNA (HeyA8 orthotopic model; mouse, in vivo) | efficacy compared with empty liposomes (SKOV3ip1 cells)
1 | FAK siRNA: sense r(CCACCUGGGCCAGUAUUAU)d(TT), antisense r(AUAAUACUGGCCCAGGUGG)d(TT); for in vivo delivery incorporated into DOPC (sense CCACCUGGGCCAGUAUUAUTT; antisense AUAAUACUGGCCCAGGUGGTT; sugars from the 5' end r19 d2, backbone not given here) | 70 | 3.7 | significantly increased | mean MVD was reduced | substantially reduced | Minimal reduction of PCNA expression | –
2 | control siRNA: sense r(UUUUCCGAACGUGUCACGU)dTT, antisense r(ACGUGACACGUUCGGAGAA)dTT, no homology with human mRNA; in vivo in DOPC (sense UUUUCCGAACGUGUCACGUTT; antisense ACGUGACACGUUCGGAGAATT; sugars from the 5' end r19 d2, backbone not given here) | 100 | 15 | no apotosis seen in endothelial cells | – | – | – | not effective against SKOV3ip1 tumors
